Reference: US20050003007A1, “Method of sterilization of polymeric microparticles” (priority 2003, published 2005)

Tested on: retinitis pigmentosa
Experiment: Subconjunctival injection of tazarotene microsphere suspension into a patient suffering from retinitis pigmentosa
Assay type: in vivo
Details: tazarotene 1 mg in poly(lactide-co-glycolide) microsphere suspension, for the duration of treatment
Procedure: A dose of tazarotene (1 mg) contained in the poly(lactide-co-glycolide) microsphere suspension of Example containing 1 is injected subconjunctivally into a patient suffering from retinitis pigmentosa.

SMILES: CCOC(=O)c1ccc(C#Cc2ccc3c(c2)C(C)(C)CCS3)nc1 [tazarotene]
- vision: Maintenance of vision or a slowing of the progression of vision loss
